Columns and labels:
Assay type in all cases: in vivo
Setaria faberi = assay: greenhouse pre-emergence herbicidal test; conditions: scale 0 to 100
Excerpt: (§1) The culture containers used were plastic flowerpots containing loamy sand with approximately 3.0% of humus as the substrate. The seeds of the test plants were sown separately for each species.
(§2) For the pre-emergence treatment, the active ingredients, which had been suspended or emulsified in water, were applied directly after sowing by means of finely distributing nozzles.
(§3) The containers were irrigated gently to promote germination and growth and subsequently covered with transparent plastic hoods until the plants had rooted. This cover caused uniform germination of the test plants, unless this had been impaired by the active ingredients.
(§4) Depending on the species, the plants were kept at 10-25° C. or 20-35° C., respectively.
(§5) The test period extended over 2 to 4 weeks. During this time, the plants were tended, and their response to the individual treatments was evaluated.
(§6) Evaluation was carried out using a scale from 0 to 100. 100 means no emergence of the plants, or complete destruction of at least the aerial moieties, and 0 means no damage, or normal course of growth. A moderate herbicidal activity is given at values of at least 60, a good herbicidal activity is given at values of at least 70, and a very good herbicidal activity is given at values of at least 85.
(§7) The plants used in the greenhouse experiments were of the following species: […]

Alopercurus myosuroides = assay: greenhouse pre-emergence herbicidal test; conditions: scale 0 to 100
Excerpt: as §1, §2, §3, §4, §5, §6, §7

Amaranthus retroflexus [1] = assay: greenhouse pre-emergence herbicidal test; conditions: scale 0 to 100
Excerpt: The seeds of the test plants were sown separately for each species. For the pre-emergence treatment, the active ingredients, which had been suspended or emulsified in water, were applied directly after sowing by means of finely distributing nozzles. The containers were irrigated gently to promote germination and growth and subsequently covered with transparent plastic hoods until the plants had rooted. This cover caused uniform germination of the test plants, unless this had been impaired by the active ingredients. […] The test period extended over 2 to 4 weeks. During this time, the plants were tended, and their response to the individual treatments was evaluated. Evaluation was carried out using a scale from 0 to 100. 100 means no emergence of the plants, or complete destruction of at least the aerial moieties, and 0 means no damage, or normal course of growth. A moderate herbicidal activity is given at values of at least 60, a good herbicidal activity is given at values of at least 70, and a very good herbicidal activity is given at values of at least 85. The plants used in the greenhouse experiments were of the following species: […]

Echinocloa crus-galli [2] = assay: greenhouse pre-emergence herbicidal test; conditions: 250 g/ha, scale 0 to 100
Excerpt: as §1, §2, §3, §4, §5, §6, §7

Abutilon theophrasti [3] = assay: greenhouse post-emergence herbicidal test; conditions: 250 g/ha, scale 0 to 100
Excerpt: as §1
(§8) For the post-emergence treatment, the test plants were first grown to a height of 3 to 15 cm, depending on the plant habit, and only then treated with the active ingredients which had been suspended or emulsified in water. For this purpose, the test plants were either sown directly and grown in the same containers, or they were first grown separately as seedlings and transplanted into the test containers a few days prior to treatment.
as §4, §5, §6, §7

Amaranthus retroflexus [4] = assay: greenhouse post-emergence herbicidal test; conditions: 250 g/ha, scale 0 to 100
Excerpt: as §1, §8, §4, §5, §6, §7

Apera spica-venti = assay: greenhouse pre-emergence herbicidal test; conditions: scale 0 to 100
Excerpt: as §1, §2, §3, §4, §5, §6, §7

Setaria viridis = assay: greenhouse post-emergence herbicidal test; conditions: 250 g/ha, scale 0 to 100
Excerpt: as §1, §8, §4, §5, §6, §7

Lolium multiflorum = assay: greenhouse pre-emergence herbicidal test; conditions: 250 g/ha, scale 0 to 100
Excerpt: as §1, §2, §3, §4, §5, §6, §7

Echinocloa crus-galli [5] = assay: greenhouse post-emergence herbicidal test; conditions: 250 g/ha, scale 0 to 100
Excerpt: as §1, §8, §4, §5, §6, §7

Abutilon theophrasti [6] = assay: greenhouse pre-emergence herbicidal test; conditions: 250 g/ha, scale 0 to 100
Excerpt: as §1, §2, §3, §4, §5, §6, §7

SMILES	herbicidal activity (Setaria faberi; 250 g/ha)	herbicidal activity (Alopercurus myosuroides; 250 g/ha)	herbicidal activity (Amaranthus retroflexus [1]; 250 g/ha)	herbicidal activity (Echinocloa crus-galli [2])	further results
CC(C)(C)c1nc(N)nc(Nc2c(F)ncc(F)c2Cl)n1 [Example 7, 6-tert-butyl-N4-(4-chloro-2,5-difluoro-3-pyridyl)-1,3,5-triazine-2,4-diamine]	95%	98%	90%		
Nc1nc(Nc2c(F)ncc(F)c2Br)nc(C2(F)CCCC2)n1 [Example 43]	100%	100%	100%		
CC1(c2nc(N)nc(Nc3c(F)ncc(F)c3Cl)n2)CCCC1 [Example 14]			85%		
CCCC(F)c1nc(N)nc(Nc2c(F)ncc(F)c2Cl)n1 (racemic) [Example 13]	100%		100%	100%	
Nc1nc(Nc2c(F)nc(F)c(F)c2Cl)nc(C2(F)CCCC2)n1 [Example 69]					herbicidal activity (Setaria faberi; 125 g/ha): 100%; herbicidal activity (Alopercurus myosuroides; 125 g/ha): 100%; herbicidal activity (Amaranthus retroflexus [1]; 125 g/ha): 100%
CCCC(F)(F)c1nc(N)nc(Nc2c(F)ncc(F)c2Cl)n1 [Example 37]	100%	100%	100%		
CC(F)c1nc(N)nc(Nc2c(F)ncc(F)c2Cl)n1 (racemic) [Example 8]	100%		100%	90%	
CC(C)(CO)c1nc(N)nc(Nc2c(F)ncc(F)c2Cl)n1 [Example 40]	95%	90%	100%		
Nc1nc(Nc2c(F)ncc(F)c2Cl)nc(C2(Cl)CCCC2)n1 [Example 21]	95%		100%		
N#Cc1ccnc(Cl)c1Nc1nc(N)nc(C2(F)CCCC2)n1 [Example 60]			98%	85%	herbicidal activity (Abutilon theophrasti [3]): 95%; herbicidal activity (Amaranthus retroflexus [4]): 80%; herbicidal activity (Apera spica-venti; 250 g/ha): 95%
Nc1nc(Nc2c(F)ncc(F)c2Cl)nc(C2(F)CC=CC2)n1 [Example 19]	100%		100%	100%	
CC1(c2nc(N)nc(Nc3c(F)ncc(F)c3Cl)n2)CCC1 [Example 9]		100%	100%	100%	
Nc1nc(Nc2c(F)ncc(F)c2Cl)nc(C2(F)CCCC2)n1 [Example 12]	100%		100%	98%	
CCC(F)(CC)c1nc(N)nc(Nc2c(F)ncc(F)c2Br)n1 [Example 52]	100%		100%	100%	
Cc1ccnc(F)c1Nc1nc(N)nc(C2(F)CCCC2)n1 [Example 54]	100%		100%		herbicidal activity (Setaria viridis): 80%; herbicidal activity (Apera spica-venti; 250 g/ha): 98%
Nc1nc(Nc2c(Cl)ccnc2Cl)nc(C2(F)CCCC2)n1 [Example 47]	100%		100%		herbicidal activity (Lolium multiflorum): 100%
CCCC(F)c1nc(N)nc(Nc2c(F)ncc(F)c2Br)n1 (centres unmarked) [Example 46]	100%	98%	100%		
CCCc1nc(F)c(Nc2nc(N)nc(C(C)(C)F)n2)c(Cl)c1F [Example 44]			100%		
Nc1nc(Nc2c(F)ncc(F)c2Cl)nc(C2(F)CCCCC2)n1 [Example 11]	100%	100%	100%		

SMILES	herbicidal activity (Setaria faberi; 250 g/ha)	herbicidal activity (Alopercurus myosuroides; 250 g/ha)	herbicidal activity (Amaranthus retroflexus [1]; 250 g/ha)	herbicidal activity (Echinocloa crus-galli [2])	further results
Nc1nc(Nc2c(F)ncc(F)c2Cl)nc(C(F)C2CCCC2)n1 (racemic) [Example 20]	100%	100%	100%		
COC1(c2nc(N)nc(Nc3c(F)ncc(F)c3Cl)n2)CCCC1 [Example 10]		100%	100%		herbicidal activity (Lolium multiflorum): 95%
CC1(c2nc(N)nc(Nc3c(F)ncc(F)c3Cl)n2)CC1 [Example 33]			98%		
CC(C)(C#N)c1nc(N)nc(Nc2c(F)ncc(F)c2Cl)n1 [Example 28]			100%		
CC(C)(C)c1nc(N)nc(Nc2c(F)ncc(F)c2Cl)n1 [Example 2, 6-tert-butyl-N4-(4-chloro-2,5-difluoro-3-pyridyl)-1,3,5-triazine-2,4-diamine]					herbicidal activity (Apera spica-venti; 125 g/ha): 90%; herbicidal activity (Amaranthus retroflexus [1]; 125 g/ha): 100%
Nc1nc(Nc2c(F)ncc(F)c2Br)nc(C2(F)CCCCC2)n1 [Example 51]	100%	100%	100%		
Nc1nc(Nc2c(F)ncc(F)c2Cl)nc(C2CCCC2)n1 [Example 6]		80%	90%		
C#CC(C)(F)c1nc(N)nc(Nc2c(F)ncc(F)c2Cl)n1 (centres unmarked) [Example 48]	100%		100%	98%	
CC(C)(F)c1nc(N)nc(Nc2c(F)ncc(F)c2Cl)n1 [Example 4]		100%	100%	100%	
CC(C)(F)c1nc(N)nc(Nc2c(F)nc(F)c(F)c2OCC(F)(F)F)n1 [Example 65]			100%		herbicidal activity (Abutilon theophrasti [3]): 100%; herbicidal activity (Amaranthus retroflexus [4]): 100%; herbicidal activity (Echinocloa crus-galli [5]): 95%; herbicidal activity (Apera spica-venti; 250 g/ha): 100%
Nc1nc(Nc2c(F)ncc(F)c2Cl)nc(C2(F)CC2)n1 [Example 31]		100%	100%	100%	
CC(C)CC(F)(F)c1nc(N)nc(Nc2c(F)ncc(F)c2Cl)n1 [Example 38]	90%		100%		
Cc1ccnc(Cl)c1Nc1nc(N)nc(C(C)(C)F)n1 [Example 53]	95%		100%		herbicidal activity (Abutilon theophrasti [3]): 80%; herbicidal activity (Amaranthus retroflexus [4]): 98%; herbicidal activity (Abutilon theophrasti [6]): 100%
Cc1nc(F)c(Nc2nc(N)nc(C(C)(C)F)n2)c(Cl)c1F [Example 32, N4-(4-Chloro-2,5-difluoro-6-methyl-3-pyridyl)-6-(1-fluoro-1-methyl-ethyl)-1,3,5-triazine-2,4-diamine]		90%	100%	85%	
Nc1nc(Nc2c(F)ncc(F)c2Br)nc(C(F)C2CCCC2)n1 (centres unmarked) [Example 61]	100%	90%	100%		
CC1CCC(c2nc(N)nc(Nc3c(F)ncc(F)c3Cl)n2)CC1 (centres unmarked) [Example 23]			95%		
CC(C)(Cl)c1nc(N)nc(Nc2c(F)ncc(F)c2Cl)n1 [Example 36]	100%	100%	100%		
CC(C)(F)c1nc(N)nc(Nc2c(F)ncc(F)c2Br)n1 [Example 35]		100%	100%	100%	
CC(C)(F)c1nc(N)nc(Nc2c(F)ncc(F)c2I)n1 [Example 41]	100%	98%	100%		

— patent US11388901B2, “Herbicidal azines” (BASF SE, priority 2017, dated 2022)
